The record followed here is ChEMBL document CHEMBL1649521, “Influence of the cytochrome P450 2B6 genotype on population pharmacokinetics of efavirenz in human immunodeficiency virus patients” (Antimicrob Agents Chemother, 2009).

The nature of data set [1]: Apparent oral volume of distribution in patient with HIV infection at 600 mg/kg QD. Particulars: human, in vivo, read-out: Vc/F. Further details: dose 600 mg/kg, route oral. Type of data set: ADME, organism-based.
Data set [2] is described as follows: Apparent oral clearance in patient with HIV infection at 600 mg/kg, […] QD. Type of data set: ADME, organism-based. Also on record: dose 600 mg/kg, route oral. Particulars: human, in vivo.

As for `O=C1Nc2ccc(Cl)cc2[C@@](C#CC2CC2)(C(F)(F)F)O1` [EFAVIRENZ], the Vd/F in data set [1] came to 295 L. In addition, the CL/F in data set [2] is 154 mL/min.

In general, CL/F refers to clearance divided by bioavailability, as obtained after extravascular dosing.
